Data from paper PMC8312697, “Mechanistic Investigations Support Liver Safety of Ubrogepant” (Toxicological Sciences, 2020).

Experiments:
HepG2 cells [1] = test: Seahorse cellular respiration assay (OCR); type: cell-based, human
Procedure: Identical parallel cultures were established to test for an effect on cytotoxicity via cellular ATP content. […]. Importantly, the 1-hour culture was conducted in the absence of serum (i.e., no serum protein binding) as is standard for the Seahorse Analyzer assay conditions. However, the 24-hour culture was too long for robust cell culture in the absence of serum. Serum was present up to 1 hour before the assay, when cell culture media was exchanged for the standard assay media. Three independent studies were conducted in duplicate.
To assess the potential mitochondrial liabilities of ubrogepant, cellular respiration assays using a Seahorse XFe96 Flux Analyzer were conducted by Cyprotex (Macclesfield, UK). HepG2 cells were incubated with ubrogepant at concentrations ranging from 0.1 – 125 μM for 1 or 24 hours and tested for an effect on cellular respiration as measured by the oxygen consumption rate (OCR). Three independent studies were conducted in duplicate. Importantly, the 1-hour culture was conducted in the absence of serum (i.e., no serum protein binding) as is standard for the Seahorse Analyzer assay conditions. However, the 24-hour culture was too long for robust cell culture in the absence of serum. Serum was present up to 1 hour before the assay, when cell culture media was exchanged for the standard assay media. The measured OCR was corrected for the relative amounts of viable cells that contributed to the measured OCR, removing the possible interpretation of OCR reductions as being due to cell loss.
To assess the potential mitochondrial liabilities of MK-3207, cellular respiration assays using a Seahorse XFe96 Flux Analyzer were conducted by Cyprotex (Macclesfield, UK). HepG2 cells were incubated with MK-3207 at concentrations ranging from 0.01 – 75 μM for 1 or 24 hours and tested for an effect on cellular respiration as measured by the OCR. Three independent studies were conducted in duplicate. Importantly, the 1-hour culture was conducted in the absence of serum (i.e., no serum protein binding) as is standard for the Seahorse Analyzer assay conditions. However, the 24-hour culture was too long for robust cell culture in the absence of serum. Serum was present up to 1 hour before the assay, when cell culture media was exchanged for the standard assay media. Intracellular MK-3207 concentrations were also assessed in identical duplicate HepG2 cultures. The measured OCR was corrected for the relative amounts of viable cells that contributed to the measured OCR, removing the possible interpretation of OCR reductions as being due to cell loss; the process for this was the same as that described above for ubrogepant.

HepG2 cells [2] = test: Oxidative stress assay (ROS, DHE fluorescence); type: cell-based, human
Procedure: Three independent studies in triplicate were conducted on HepG2 cells, and two independent studies in triplicate were conducted on primary human hepatocytes.
(§1) To assess the potential for ubrogepant to induce oxidative stress, assays to measure formation of reactive oxygen species (ROS) were conducted by Cyprotex. HepG2 cells were cultured in triplicate with ubrogepant for 6 or 24 hours at concentrations ranging from 0.01 – 150 μM, and ROS formation was assayed by DHE fluorescence assay. HepG2 cells have reduced metabolic activity relative to primary human hepatocytes.^3,4 Three independent studies in triplicate were conducted on HepG2 cells.
as §1, with “MK-3207” for “ubrogepant”, “ROS” for “reactive oxygen species (ROS)”, “μM” for “μM,”, “conducted.” for “conducted on HepG2 cells.”

[3] = system: Nrf2 electrophilic stress and Nrf1 proteasomal stress pathways; test: In vivo rat liver gene expression bioactivation liver response assay (BA-LRA); settings: for upregulation of pathways associated with electrophilic and proteasomal stress: rat liver gene expression studies; for maximum liver safe daily dose predicted from BA-LRA: human daily dose projected from rat BA-LRA score; for BA-LRA score: also presented in Monroe et al., 2018
From the text: A prediction of a clinical daily dose burden associated with reactive metabolite-mediated DILI potential was derived from a focused and integrated quantitative rat liver molecular gene expression signature optimized predominantly for Nrf2 electrophilic stress and Nrf1 proteasomal stress pathways to describe a bioactivation liver response assay (BA-LRA) result. […] The clinical dose is identified that projects DILI risk to exceed the optimized threshold calculation for each BA-LRA result.

CGRP receptor = biological target: T1, CGRP receptor (Homo sapiens, UniProt O60894+Q16602); test: CGRP-stimulated cAMP response in HEK293 cells; type: cell-based; settings: read-out: Potency IC50
T1 construct: expressed in transfected cells; host or cells: HEK293
T1 sequence (Q16602 23-461): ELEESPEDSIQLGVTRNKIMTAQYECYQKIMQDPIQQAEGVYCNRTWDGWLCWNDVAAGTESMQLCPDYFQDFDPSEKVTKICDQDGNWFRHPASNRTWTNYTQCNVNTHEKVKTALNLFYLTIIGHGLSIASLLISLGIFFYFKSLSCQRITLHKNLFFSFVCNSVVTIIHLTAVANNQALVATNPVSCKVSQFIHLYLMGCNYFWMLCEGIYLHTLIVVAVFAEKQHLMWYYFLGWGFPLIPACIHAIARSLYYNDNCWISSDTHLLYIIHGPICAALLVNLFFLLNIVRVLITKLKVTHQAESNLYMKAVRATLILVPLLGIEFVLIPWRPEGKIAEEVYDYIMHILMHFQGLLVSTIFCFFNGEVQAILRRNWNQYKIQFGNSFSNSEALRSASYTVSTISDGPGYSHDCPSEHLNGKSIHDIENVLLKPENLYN
T1 sequence (O60894 27-148): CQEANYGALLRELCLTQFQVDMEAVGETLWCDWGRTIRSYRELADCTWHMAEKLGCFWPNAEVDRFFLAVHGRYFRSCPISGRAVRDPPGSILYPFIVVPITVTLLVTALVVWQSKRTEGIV

rats = test: Conventional nonclinical toxicology study, rat; type: in vivo
Procedure: Conventional animal toxicology studies in rats and monkeys were performed by Merck & Co, Inc (West Point, Pennsylvania).

HepG2 cell = HepG2 cell glucose/galactose shift model; type: cell-based, human
[4] = system: Nrf2 oxidative stress and Nrf1 proteasomal stress pathways; test: In vitro rat HEPATOPAC gene expression BA-LRA; type: cell-based; settings: 50 μM
[5] = system: HEPATOPAC hepatocyte coculture; test: HEPATOPAC urea synthesis (mitochondrial function); type: cell-based, rat; settings: 50 µM
Procedure: Effects of test agents on mitochondrial function were assessed from media collected in the same HEPATOPAC studies by monitoring urea synthesis rates ([Khetani et al., 2013]).

[6] = HepG2, 1-hour incubation, no serum

| SMILES | effect on oxygen consumption rate (OCR) (HepG2 cells [1]; [6]) | effect on oxygen consumption rate (OCR) (HepG2 cells [1]; HepG2, 24-hour incubation) | induction of oxidative stress (ROS formation) (HepG2 cells [2]; HepG2, 6-hour incubation) | induction of oxidative stress (ROS formation) (HepG2 cells [2]; HepG2, 24-hour incubation) | upregulation of pathways associated with electrophilic and proteasomal stress [3] | BA-LRA response ([3]; rat liver, 7 days with 750 mg/kg) | IC50 (CGRP receptor) | Pivotal conventional nonclinical toxicology study liver findings (rats; 6M rat) | exposure margin (rats; 6M rat) | mitochondrial toxicity potential (HepG2 cell) | BA-LRA score [4] | maximum liver safe daily dose predicted from BA-LRA [3] | BA-LRA score ([3]; rat liver, 600 mg/kg/day × 4 days) | effect on urea (mitochondrial function) [5] | BA-LRA score ([3]; rat liver, 400 mg/kg/day × 4 days, evidence of transcriptional suppression) | Pivotal conventional nonclinical toxicology study liver findings (rats; 3M rat) | exposure margin (rats; 3M rat) |
| --- | --- | --- | --- | --- | --- | --- | --- | --- | --- | --- | --- | --- | --- | --- | --- | --- | --- |
| C[C@@H]1[C@H](c2ccccc2)C[C@H](NC(=O)c2cnc3c(c2)C[C@@]2(C3)C(=O)Nc3ncccc32)C(=O)N1CC(F)(F)F [Ubrogepant] | not after a 1-hour incubation | inhibit the HepG2 OCR in a dose-dependent manner | not evident | modest induction of oxidative stress | did not | No BA-LRA response | 0.08 nM | < 2× ALT with no liver histopathology | 70 × |  |  |  |  |  |  |  |  |
| O=C(CN1C(=O)C2(CCCC2)NC[C@H]1c1cc(F)cc(F)c1)Nc1ccc2c(c1)C[C@@]1(C2)C(=O)Nc2ncccc21 [MK-3207] | mildly inhibit cellular respiration | mildly inhibit cellular respiration | not evident | modest induction of oxidative stress | upregulated pathways associated with electrophilic and proteasomal stress |  | 0.12 nM | no liver safety signal | 25 × | did not raise mitochondrial safety concerns | > 0.2 | 300 mg | 0.34 | No effect on urea |  |  |  |
| O=C(N[C@@H]1CC[C@@H](c2cccc(F)c2F)CN(CC(F)(F)F)C1=O)N1CCC(n2c(=O)[nH]c3ncccc32)CC1 [Telcagepant] | inhibit the HepG2 OCR in a dose-dependent manner | A similar OCR response |  | modest induction of oxidative stress | upregulated pathways associated with electrophilic and proteasomal stress |  |  | no liver safety signal | 7 × | did not raise mitochondrial safety concerns | > 0.2 | < 600 mg |  | No effect on urea | 0.30 | < 3× ALT/AST with no liver histopathology | 15 × |
